In patent US20230310352A1, “NOVEL COMPOSITIONS AND METHODS FOR THE TREATMENT OF LUNG FIBROSIS” (LAURENT PHARMACEUTICALS INC., priority 2020, published 2023):
“Also recorded” adds a separate entry of the source.

How the values were obtained:
[1] = tested on: Normal human lung fibroblast cells (NHLF cells, ATCC CRL-7000); test: α-SMA protein by ELISA after TGF-β1 exposure in NHLF; format: cell-based; conditions: TGF-β1 2 ng/mL + fenretinide 1, 2, 3, 4 μM, 3 days
Protocol: NHLF cells were incubated for 3 days at 37° C. and treated with TGF-β1 (2 ng/mL) or TGF-β1 (2 ng/mL)+fenretinide (1, 2, 3, 4 μM). At the end of the 3 day-treatment period, media was collected in identified tubes, centrifuged at 2,000×g for 20 minutes and stored at −80° C. Cells were collected using trypsin, transferred in identified tubes and centrifuged at 1,000×g for 5 minutes. Cells were then washed twice in phosphate buffered saline (PBS) 1X prior to be resuspended in ELISA lysis buffer. α-SMA protein contents were determined using Abcam ELISA detection kit (Ab240678). The experiment was performed in quadruplicate.

[2] = tested on: bleomycin-induced lung fibrosis; test: Intratracheal bleomycin mouse model of pulmonary fibrosis (21-day model); format: in vivo, C57BL/6N mice; conditions: Day 21, oral once daily for 14 days
Protocol: Oral administration of a solid amorphous dispersion formulation of fenretinide (LAU-7b SDI) was evaluated in treating and/or reducing pulmonary fibrosis in mouse model of lung fibrosis induced via a single intratracheal administration of bleomycin followed by vehicle, fenretinide (LAU-7b SDI) or pirfenidone oral treatment for 21 days. The LAU-7b SDI formulation was obtained by spray drying and contains fenretinide in amorphous form in a solid dispersion comprising a matrix polymer, based on the following formula: 40% fenretinide, 59.6% povidone (KOLLIDON® 30), 0.24% butylated hydroxyanisole (BHA) and 0.16% butylated hydroxytoluene (BHT).
Male C57BL/6N mice from Charles River Laboratories, 10-12 weeks of age, weighing around 20-25 g, at the time of their enrolment, received 50 μL of bleomycin sulfate (2.0 mg/kg) by a single intratracheal instillation on Day 1 of the study. The Sham group received an equivalent volume of 0.9% saline. On Day 7 post-bleomycin instillation the animals were randomized in groups of 8 animals based on their body weight loss and Penh value. Oral dosing by gavage (10 mL/kg) with the vehicle (sham and BLM Control groups), LAU-7b SDI (fenretinide at 5 mg/kg and 10 mg/kg dose), and the reference compound (pirfenidone 100 mg/kg) were initiated once daily starting from Day 7 to Day 21. Two hours following the last dose on Day 21 all the mice were sacrificed, the lungs of each mouse were harvested, flushed with 0.9% NaCl and inflated with 10% neutral buffered formalin solution. After embedding and mounting of the lung tissue (transversal slices of 5 μm thickness), the histology slides were stained with hematoxylin/eosin for the Ashcroft score evaluation by a treatment-blinded pathologist, and with Sirius red staining for automated fibrosis quantification (Biocellvia, France).
As in Example 4, the key endpoints evaluated in this study were the Ashcroft score, pulmonary foci and collagen content obtained by histological assessment of the lung tissue at the end of the study. Statistical analysis was made on normally distributed data by one-way ANOVA followed by multiple comparisons (Fisher's LSD post hoc test) to assess the difference between the groups, using Graph Pad Prism Software version 8.0 (San Diego, CA, USA). Differences were considered statistically significant when P values were p<0.05 (*), or p<0.01 (**) or p<0.001 (***). The Ashcroft score was assessed in the lung tissue by treatment-blinded pathologist on the H&E stained histology slides (2 cross sections/animal) and using the modified Ashcroft scale. Briefly, each lung section was scanned at a magnification of ×100 (H&E staining), and graded from 0 (normal lung) to 8 (total fibrotic obliteration of the field). The mean value of the grades obtained for each of the two sections was used as the Ashcroft score.
Pulmonary foci (fibrotic tissue) and lung collagen content were quantified in the Sirius red stained lung tissue histology sections by high resolution, automated digital image analysis (Biocellvia, France) on Day 21 after lung fibrosis induction by bleomycin (BLM) instillation and following a 14-day oral gavage treatment with LAU-7b SDI (fenretinide, two doses), pirfenidone (reference drug) or vehicle only. Full field analysis of 2 lung sections per animal was conducted and the results were expressed as a mean percentage of total surface. This test is considered highly reliable, offering reproducible and observer-independent assessment of quantitative analysis of fibrosis.

[3] = tested on: lung fibroblast-populated long microtissue; test: Lung fibroblast-populated long microtissue, model of traction bronchiectasis; format: cell-based, human
Text: In a fibrotic lung, traction bronchiectasis occurs when small bronchial openings dilate due to traction force exerted by the surrounding fibrotic tissue. To model this unique fibrosis feature of the lung, stress concentrations were patterned to induce the dilation of tissue openings in the engineered microtissues described in Example 2. In order to further increase local stress levels, rigid micropillars were designed to support the long microtissue. In order to experimentally model the mechanical process of traction bronchiectasis, lung fibroblast-populated long microtissue was induced to fibrosis using TGF-β1 treatment (5 ng/ml). Continuous TGF-β1 treatment for 6 days induced increased expression of α-SMA and pro-collagen type 1 across the entire microtissue, in addition to dilated tissue openings around the micropillars. These effects were absent in untreated conditions. To examine the effects of fenretinide (2 μM and 4 μM doses) in inhibiting traction bronchiectasis, fenretinide was co-administered with TGF-β1 at the beginning of long microtissue culture and remained for 6 days. The unique geometry of the long microtissue allows tissue opening (hole) formation around micropillars under elevated contractile force generated by the differentiated myofibroblasts, mimicking the traction bronchiectasis. […] FIG. 9 presents the quantified opening area/total tissue area ratio.

[4] = fenretinide 5 mg/kg (as LAU-7b SDI)
[5] = fenretinide 10 mg/kg (as LAU-7b SDI), pirfenidone 100 mg/kg

With `CC1=C(/C=C/C(C)=C/C=C/C(C)=C/C(=O)Nc2ccc(O)cc2)C(C)(C)CCC1` [fenretinide, 4-hydroxyphenyl retinamide] the “induction of fibrotic marker α-SMA protein levels (ELISA)” value [1] was “attenuate and, at certain doses, completely abolish; also recorded: attenuates in a dose-dependent manner; also recorded: dose-dependent attenuation”, the “Ashcroft score vs BLM control” value [2, 4] was “also reduced” and the “percentage of collagen content, automated Sirius red analysis, vs BLM control” value [2, 4] was “did not induce statistically significant reduction”. The “percentage of pulmonary foci, automated Sirius red analysis, vs BLM control” value [2, 4] was “did not induce statistically significant reduction”, the “Ashcroft score vs BLM control” value [2, 5] was “reduced significantly” and the “percentage of collagen content, automated Sirius red analysis, vs BLM control” value [2, 5] was “reduced significantly (p<0.05)”. For the same molecule, the “percentage of pulmonary foci, automated Sirius red analysis, vs BLM control” value [2, 5] was “reduced significantly (p<0.05)”, the “expression level of α-SMA in the long microtissue” value ([3]; TGF-β1 5 ng/ml, 6 days, 4 μM) was “strongly inhibited” and the “pro-collagen expression in the long microtissue” value ([3]; TGF-β1 5 ng/ml, 6 days, 4 μM) was “a similar trend”. For the same molecule, the “tissue openings around micropillars (traction bronchiectasis)” value ([3]; co-administered with TGF-β1 5 ng/ml for 6 days, 2 μM and 4 μM) was “tissue openings remained small”.
